{"source": "patent US20090124656A1", "about": "“Heterocyclic Oxime Compounds a Process for Their Preparation and Pharmaceutical Compositions Containing Them” (LES LABORATOIRES SERVIER, priority 2005, published 2009)", "tested_on": "ob/ob mouse", "assay": "Antidiabetic and hypolipaemic effect in the ob/ob mouse", "assay_type": "in vivo", "details": "dose of 3 mg/kg for 4 days", "from_the_text": "Mutations in laboratory animals and also different sensitivities to dietary regimens have allowed the development of animal models having non-insulin-dependent diabetes and hyperlipidaemia associated with obesity and with resistance to insulin.\nGenetic mice models (ob/ob) (Diabetes, 1982, 31 (1), 1-6) and Zucker (fa/fa) rats have been developed by various laboratories in order to understand the physiopathology of those diseases and test the effectiveness of new antidiabetic compounds (Diabetes, 1983, 32, 830-838).\nAntidiabetic and Hypolipaemic Effect in the ob/ob Mouse\nThe 10-week-old female ob/ob mouse (Harlan) is used for the in vivo tests. The animals are kept in a light-darkness cycle of 12 hours at 25° C. The mouse has a basal hyperglycaemia of 2 g/l. The animals are randomly selected with regard to their glycaemia to form groups of six. […] […] The control groups receive the solvents under the same conditions as the treated groups.\nThe activity of the products is evaluated by measuring glycaemia 24 hours after the final administration and by measuring body weight daily.", "data": [{"smiles": "CCOC(Cc1ccc(OCCN2CCC(C)(C)c3cc(C(=O)C4CCCCC4)ccc32)cc1)C(=O)O", "note": "(stereo not drawn) [3-{4-[2-(6-(Cyclohexylcarbonyl)-4,4-dimethyl-3,4-dihydro-1(2H)-quinolinyl)ethoxy]phenyl}-2-ethoxypropanoic acid]", "values": [{"measurement": "reduction in glycaemia", "value": 32, "unit": "%"}, {"measurement": "reduction in insulinaemia", "value": 56, "unit": "%"}, {"measurement": "reduction in triglyceridaemia", "value": 57, "unit": "%"}]}]}
